Data from PubChem BioAssay (NCI).
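96-well plates; 48 h exposure; 5 concentrations. Endpoints by linear interpolation between flanking doses. Not reached: highest tested concentration assigned. GI50 is the concentration that inhibits growth by half. At the TGI there is no net growth.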

What was measured:
Assay in all cases: NCI anticancer screen, dose series, 48 h
HCC-2998 colon = tested on: HCC-2998 colon
SF-268 CNS = tested on: SF-268 CNS
A498 renal = tested on: A498 renal
RXF 393 renal = tested on: RXF 393 renal
SK-MEL-5 melanoma = tested on: SK-MEL-5 melanoma
SK-OV-3 ovarian = tested on: SK-OV-3 ovarian
UO-31 renal = tested on: UO-31 renal
M14 melanoma = tested on: M14 melanoma
BT-549 breast = tested on: BT-549 breast
SNB-75 CNS = tested on: SNB-75 CNS
NCI-H226 lung = tested on: NCI-H226 lung
SK-MEL-2 melanoma = tested on: SK-MEL-2 melanoma
PC-3 prostate = tested on: PC-3 prostate
TK-10 renal = tested on: TK-10 renal
IGROV1 ovarian = tested on: IGROV1 ovarian
MDA-MB-468 breast = tested on: MDA-MB-468 breast
SK-MEL-28 melanoma = tested on: SK-MEL-28 melanoma
MDA-MB-435 = tested on: MDA-MB-435
OVCAR-5 ovarian = tested on: OVCAR-5 ovarian
HL-60(TB) leukemia = tested on: HL-60(TB) leukemia
SF-295 CNS = tested on: SF-295 CNS
SF-539 CNS = tested on: SF-539 CNS
ACHN renal = tested on: ACHN renal
HS 578T breast = tested on: HS 578T breast
HCT-15 colon = tested on: HCT-15 colon
SR leukemia = tested on: SR leukemia
UACC-62 melanoma = tested on: UACC-62 melanoma
COLO 205 colon = tested on: COLO 205 colon
KM12 colon = tested on: KM12 colon
SN12C renal = tested on: SN12C renal
OVCAR-4 ovarian = tested on: OVCAR-4 ovarian
EKVX NSCLC = tested on: EKVX NSCLC
SNB-19 CNS = tested on: SNB-19 CNS
NCI-H522 lung = tested on: NCI-H522 lung
NCI/ADR-RES ovarian = tested on: NCI/ADR-RES ovarian
NCI-H460 lung = tested on: NCI-H460 lung
DU-145 prostate = tested on: DU-145 prostate
SW-620 colon = tested on: SW-620 colon
A549 NSCLC = tested on: A549 NSCLC
MDA-MB-231 breast = tested on: MDA-MB-231 breast
MALME-3M melanoma = tested on: MALME-3M melanoma
K-562 leukemia = tested on: K-562 leukemia
OVCAR-3 ovarian = tested on: OVCAR-3 ovarian
RPMI-8226 leukemia = tested on: RPMI-8226 leukemia
CCRF-CEM leukemia = tested on: CCRF-CEM leukemia
HOP-92 NSCLC = tested on: HOP-92 NSCLC
HOP-62 NSCLC = tested on: HOP-62 NSCLC
HT29 colon = tested on: HT29 colon
OVCAR-8 ovarian = tested on: OVCAR-8 ovarian
UACC-257 melanoma = tested on: UACC-257 melanoma
T-47D breast = tested on: T-47D breast
CAKI-1 renal = tested on: CAKI-1 renal
786-0 renal = tested on: 786-0 renal
NCI-H23 lung = tested on: NCI-H23 lung
LOX IMVI melanoma = tested on: LOX IMVI melanoma
U251 CNS = tested on: U251 CNS
MCF7 breast = tested on: MCF7 breast
HCT-116 colon = tested on: HCT-116 colon

In the case of `N#Cc1c(NC(=O)c2ccc(C(O)(C(F)(F)F)C(F)(F)F)cc2)sc2c1CCC(=O)C2`, the GI50 (HCC-2998 colon) is reported as 1.71 µM, the TGI (HCC-2998 colon) is reported as 3.15 µM and the GI50 (SF-268 CNS) is reported as 2.37 µM. For the same compound, the TGI (SF-268 CNS) was 7.27 µM, the GI50 (A498 renal) was 12.2 µM and the TGI (A498 renal) was 26.5 µM. It also gave a GI50 (RXF 393 renal) of 0.549 µM, a TGI (RXF 393 renal) of 2.08 µM and a GI50 (SK-MEL-5 melanoma) of 1.58 µM. For the same compound, the TGI (SK-MEL-5 melanoma) was 2.93 µM, the GI50 (SK-OV-3 ovarian) was 2.88 µM and the TGI (SK-OV-3 ovarian) was 8.16 µM. For the same compound, the GI50 (UO-31 renal) was 0.682 µM, the TGI (UO-31 renal) was 2 µM and the GI50 (M14 melanoma) was 0.739 µM. The TGI (M14 melanoma) was 2.77 µM, the GI50 (BT-549 breast) was 0.422 µM and the TGI (BT-549 breast) was 1.78 µM. For the same compound, the GI50 (SNB-75 CNS) was 1.31 µM, the TGI (SNB-75 CNS) was 4.39 µM and the GI50 (NCI-H226 lung) was 2.01 µM. The TGI (NCI-H226 lung) was 5.67 µM, the GI50 (SK-MEL-2 melanoma) was 2.14 µM and the TGI (SK-MEL-2 melanoma) was 4.36 µM. For the same compound, the GI50 (PC-3 prostate) was 0.325 µM, the TGI (PC-3 prostate) was 1.94 µM and the GI50 (TK-10 renal) was 2.38 µM. For the same compound, the TGI (TK-10 renal) was 8.7 µM, the GI50 (IGROV1 ovarian) was 1.81 µM and the TGI (IGROV1 ovarian) was 3.86 µM. It also gave a GI50 (MDA-MB-468 breast) of 0.6 µM, a TGI (MDA-MB-468 breast) of 1.67 µM and a GI50 (SK-MEL-28 melanoma) of 1.29 µM. The TGI (SK-MEL-28 melanoma) was 2.76 µM, the GI50 (MDA-MB-435) was 1.93 µM and the TGI (MDA-MB-435) was 4.18 µM. It also gave a GI50 (OVCAR-5 ovarian) of 1.67 µM, a TGI (OVCAR-5 ovarian) of 3.38 µM and a GI50 (HL-60(TB) leukemia) of 0.415 µM. For the same compound, the TGI (HL-60(TB) leukemia) was > 100 µM, the GI50 (SF-295 CNS) was 2.13 µM and the TGI (SF-295 CNS) was 5.24 µM. It also gave a GI50 (SF-539 CNS) of 0.539 µM, a TGI (SF-539 CNS) of 1.71 µM and a GI50 (ACHN renal) of 0.346 µM. It also gave a TGI (ACHN renal) of 1.35 µM, a GI50 (HS 578T breast) of 1.77 µM and a TGI (HS 578T breast) of 5.55 µM. It also gave a GI50 (HCT-15 colon) of 1.1 µM, a TGI (HCT-15 colon) of 2.92 µM and a GI50 (SR leukemia) of 0.546 µM. The TGI (SR leukemia) was > 34.7 µM, the GI50 (UACC-62 melanoma) was 1.39 µM and the TGI (UACC-62 melanoma) was 2.81 µM. It also gave a GI50 (COLO 205 colon) of 0.995 µM, a TGI (COLO 205 colon) of 2.66 µM and a GI50 (KM12 colon) of 1.46 µM. The TGI (KM12 colon) was 3.32 µM, the GI50 (SN12C renal) was 1.29 µM and the TGI (SN12C renal) was 3.33 µM. The GI50 (OVCAR-4 ovarian) was 1.45 µM, the TGI (OVCAR-4 ovarian) was 3.39 µM and the GI50 (EKVX NSCLC) was 2.65 µM. For the same compound, the TGI (EKVX NSCLC) was 8.4 µM, the GI50 (SNB-19 CNS) was 3.44 µM and the TGI (SNB-19 CNS) was 11.9 µM. For the same compound, the GI50 (NCI-H522 lung) was 0.363 µM, the TGI (NCI-H522 lung) was 1.59 µM and the GI50 (NCI/ADR-RES ovarian) was 2.27 µM. The TGI (NCI/ADR-RES ovarian) was 6.78 µM, the GI50 (NCI-H460 lung) was 2.73 µM and the TGI (NCI-H460 lung) was 8.49 µM. For the same compound, the GI50 (DU-145 prostate) was 3.38 µM, the TGI (DU-145 prostate) was 11.7 µM and the GI50 (SW-620 colon) was 0.354 µM. For the same compound, the TGI (SW-620 colon) was 1.54 µM, the GI50 (A549 NSCLC) was 2.75 µM and the TGI (A549 NSCLC) was 12.6 µM. It also gave a GI50 (MDA-MB-231 breast) of 1.47 µM, a TGI (MDA-MB-231 breast) of 2.93 µM and a GI50 (MALME-3M melanoma) of 0.641 µM. The TGI (MALME-3M melanoma) was 1.94 µM, the GI50 (K-562 leukemia) was 0.297 µM and the TGI (K-562 leukemia) was > 100 µM. The GI50 (OVCAR-3 ovarian) was 1.23 µM, the TGI (OVCAR-3 ovarian) was 2.53 µM and the GI50 (RPMI-8226 leukemia) was 0.434 µM. For the same compound, the TGI (RPMI-8226 leukemia) was > 100 µM, the GI50 (CCRF-CEM leukemia) was 0.338 µM and the TGI (CCRF-CEM leukemia) was 7.29 µM. For the same compound, the GI50 (HOP-92 NSCLC) was 0.475 µM, the TGI (HOP-92 NSCLC) was 1.46 µM and the GI50 (HOP-62 NSCLC) was 3.53 µM. It also gave a TGI (HOP-62 NSCLC) of 13.1 µM, a GI50 (HT29 colon) of 0.478 µM and a TGI (HT29 colon) of 6.44 µM. It also gave a GI50 (OVCAR-8 ovarian) of 2.27 µM, a TGI (OVCAR-8 ovarian) of 9.4 µM and a GI50 (UACC-257 melanoma) of 1.83 µM. For the same compound, the TGI (UACC-257 melanoma) was 4.1 µM, the GI50 (T-47D breast) was 0.496 µM and the TGI (T-47D breast) was 2.33 µM. The GI50 (CAKI-1 renal) was 0.465 µM, the TGI (CAKI-1 renal) was 1.8 µM and the GI50 (786-0 renal) was 1.13 µM. It also gave a TGI (786-0 renal) of 2.89 µM, a GI50 (NCI-H23 lung) of 1.14 µM and a TGI (NCI-H23 lung) of 2.78 µM. It also gave a GI50 (LOX IMVI melanoma) of 0.455 µM, a TGI (LOX IMVI melanoma) of 1.68 µM and a GI50 (U251 CNS) of 0.933 µM. For the same compound, the TGI (U251 CNS) was 2.71 µM, the GI50 (MCF7 breast) was 0.616 µM and the TGI (MCF7 breast) was 2.53 µM. The GI50 (HCT-116 colon) was 0.466 µM and the TGI (HCT-116 colon) was 5.29 µM.
